Experimental data as given in a compilation of properties of binary mixtures (doi:10.1016/j.molliq.2012.02.014).

Experiment: xn = mol fraction of the nth substance listed
Details: 101 kPa

CN(CCO)CCO + CCCCCC[n+]1ccn(C)c1.O=S(=O)([N-]S(=O)(=O)C(F)(F)F)C(F)(F)F
x1 = 1
Details | viscosity [mPa·s]
308.15 K | 46.2
323.15 K | 24.7

CCCCCC[n+]1ccn(C)c1.O=S(=O)([N-]S(=O)(=O)C(F)(F)F)C(F)(F)F + CN(CCO)CCO
viscosity [mPa·s]
Details | x2 = 0 | x2 = 0.0989 | x2 = 0.1899 | x2 = 0.2977 | x2 = 0.3999 | x2 = 0.4988 | x2 = 0.6075 | x2 = 0.7049 | x2 = 0.801 | x2 = 0.899
303.15 K | – | 52.4 | 46.6 | 40.8 | 37 | 35.1 | 39 | 44.3 | – | 55.1
308.15 K | 50.4 | – | 42.1 | 38 | – | 31.3 | 33.7 | 37.4 | 40.8 | 43.7
313.15 K | 41.4 | 39.2 | 36.7 | 34 | – | 29.8 | – | 31.8 | 34.3 | –
318.15 K | 35 | 33.1 | 30.8 | 27.9 | 25.4 | 23.9 | 23.8 | – | 27.3 | 28.9
323.15 K | 28.8 | 27.7 | 26 | – | 22.8 | 22.1 | 22.4 | – | 23.7 | 24.4
